From ChEMBL document CHEMBL4002566, “S-substituted 3,5-dinitrophenyl 1,3,4-oxadiazole-2-thiols and tetrazole-5-thiols as highly efficient antitubercular agents” (Eur J Med Chem, 2017)

What was measured:
Enterococcus sp. [1] = experiment: Antibacterial activity against Enterococcus sp. HK14365/08 after 24 hrs by broth microdilution method; format: functional; conditions: HK14365/08, 24 h
Escherichia coli [2] = experiment: Antibacterial activity against Escherichia coli ATCC 8739 after 24 hrs by broth microdilution method; format: functional; conditions: ATCC 8739, 24 h
[3] = tested on: Trichophyton mentagrophytes; experiment: Antifungal activity against Trichophyton mentagrophytes 445 after 120 hrs by broth microdilution method; format: functional; conditions: Trichophyton mentagrophytes, 445, 120 h
Candida albicans [4] = experiment: Antifungal activity against Candida albicans ATCC 44859 after 24 hrs by broth microdilution method; format: functional; conditions: ATCC 44859, 24 h
Enterococcus sp. [5] = experiment: Antibacterial activity against Enterococcus sp. HK14365/08 after 48 hrs by broth microdilution method; format: functional; conditions: HK14365/08, 48 h
[6] = Selectivity index, ratio of IC50 for human HepG2 cells to MIC for Mycobacterium tuberculosis; format: toxicity; conditions: read-out: Selectivity Index
Pichia kudriavzevii [7] = experiment: Antifungal activity against Candida krusei E28 after 48 hrs by broth microdilution method; format: functional; conditions: E28, 48 h
Mycobacterium kansasii [8] = experiment: Antimycobacterial activity against Mycobacterium kansasii 6509/96 clinical isolate after 14 days by micromethod; format: functional; conditions: 6509/96, 336 h
Escherichia coli [9] = experiment: Antibacterial activity against Escherichia coli ATCC 8739 after 48 hrs by broth microdilution method; format: functional; conditions: ATCC 8739, 48 h
Candida albicans [10] = experiment: Antifungal activity against Candida albicans ATCC 44859 after 48 hrs by broth microdilution method; format: functional; conditions: ATCC 44859, 48 h
[11] = Cytotoxicity against human HuH7 cells assessed as cell viability at 30 uM after 48 hrs by MTS assay relative to control; format: cell-based, Huh-7; conditions: read-out: Activity
Mycobacterium kansasii [12] = experiment: Antimycobacterial activity against Mycobacterium kansasii 6509/96 clinical isolate after 21 days by micromethod; format: functional; conditions: 6509/96, 504 h
Lichtheimia corymbifera [13] = experiment: Antifungal activity against Absidia corymbifera 272 after 48 hrs by broth microdilution method; format: functional; conditions: Lichtheimia corymbifera, 272, 48 h
Mycobacterium kansasii [14] = experiment: Antimycobacterial activity against Mycobacterium kansasii CNCTC My 235/80 after 21 days by micromethod; format: functional; conditions: CNCTC My 235/80, 504 h
Nakaseomyces glabratus [15] = experiment: Antifungal activity against Candida glabrata 20/I after 48 hrs by broth microdilution method; format: functional
[16] = tested on: Trichophyton mentagrophytes; experiment: Antifungal activity against Trichophyton mentagrophytes 445 after 72 hrs by broth microdilution method; format: functional; conditions: Trichophyton mentagrophytes, 445, 72 h
Trichosporon asahii [17] = experiment: Antifungal activity against Trichosporon asahii 1188 after 48 hrs by broth microdilution method; format: functional; conditions: Trichosporon asahii, 1188, 48 h
Staphylococcus aureus [18] = experiment: Antibacterial activity against methicillin-resistant Staphylococcus aureus HK5996/08 after 48 hrs by broth microdilution method; format: functional; conditions: HK5996/08, 48 h
Aspergillus fumigatus [19] = experiment: Antifungal activity against Aspergillus fumigatus 231 after 48 hrs by broth microdilution method; format: functional; conditions: Aspergillus fumigatus, 231, 48 h
Candida tropicalis [20] = experiment: Antifungal activity against Candida tropicalis 156 after 24 hrs by broth microdilution method; format: functional; conditions: Candida tropicalis, 156, 24 h
Staphylococcus aureus [21] = experiment: Antibacterial activity against Staphylococcus aureus ATCC 6538 after 24 hrs by broth microdilution method; format: functional; conditions: ATCC 6538, 24 h
Aspergillus fumigatus [22] = experiment: Antifungal activity against Aspergillus fumigatus 231 after 24 hrs by broth microdilution method; format: functional; conditions: Aspergillus fumigatus, 231, 24 h
Mycobacterium kansasii [23] = experiment: Antimycobacterial activity against Mycobacterium kansasii 6509/96 clinical isolate after 7 days by micromethod; format: functional; conditions: 6509/96, 168 h
[24] = Cytotoxicity against human A431 cells assessed as cell viability at 30 uM after 48 hrs by MTS assay relative to control; format: cell-based, A-431; conditions: read-out: Activity
Pseudomonas aeruginosa [25] = experiment: Antibacterial activity against Pseudomonas aeruginosa ATCC 9027 after 48 hrs by broth microdilution method; format: functional; conditions: ATCC 9027, 48 h
[26] = Cytotoxicity against MDCK cells assessed as cell viability at 30 uM after 48 hrs by MTS assay relative to control; format: cell-based, Canis lupus familiaris; conditions: dog, read-out: Activity
Mycobacterium kansasii [27] = experiment: Antimycobacterial activity against Mycobacterium kansasii CNCTC My 235/80 after 14 days by micromethod; format: functional; conditions: CNCTC My 235/80, 336 h
MDCK = experiment: Cytotoxicity against MDCK cells assessed as cell viability after 48 hrs by MTS assay; format: cell-based; conditions: Canis lupus familiaris
Pseudomonas aeruginosa [28] = experiment: Antibacterial activity against Pseudomonas aeruginosa ATCC 9027 after 24 hrs by broth microdilution method; format: functional; conditions: ATCC 9027, 24 h
Klebsiella pneumoniae [29] = experiment: Antibacterial activity against extended spectrum beta-lactamase producing Klebsiella pneumoniae HK14368/08 after 48 hrs by broth microdilution method; format: functional; conditions: HK14368/08, 48 h
Mycobacterium avium [30] = experiment: Antimycobacterial activity against Mycobacterium avium CNCTC My 330/88 after 21 days by micromethod; format: functional; conditions: CNCTC My 330/88, 504 h
Candida tropicalis [31] = experiment: Antifungal activity against Candida tropicalis 156 after 48 hrs by broth microdilution method; format: functional; conditions: Candida tropicalis, 156, 48 h
Nakaseomyces glabratus [32] = experiment: Antifungal activity against Candida glabrata 20/I after 24 hrs by broth microdilution method; format: functional
Staphylococcus aureus [33] = experiment: Antibacterial activity against methicillin-resistant Staphylococcus aureus HK5996/08 after 24 hrs by broth microdilution method; format: functional; conditions: HK5996/08, 24 h
Pichia kudriavzevii [34] = experiment: Antifungal activity against Candida krusei E28 after 24 hrs by broth microdilution method; format: functional; conditions: E28, 24 h
[35] = tested on: Staphylococcus epidermidis; experiment: Antibacterial activity against Staphylococcus epidermidis HK6996/08 after 48 hrs by broth microdilution method; format: functional; conditions: HK6996/08, 48 h
Lichtheimia corymbifera [36] = experiment: Antifungal activity against Absidia corymbifera 272 after 24 hrs by broth microdilution method; format: functional; conditions: Lichtheimia corymbifera, 272, 24 h
A-431 = experiment: Cytotoxicity against human A431 cells assessed as cell viability after 48 hrs by MTS assay; format: cell-based; conditions: A-431, 48 h
HepG2 = experiment: Cytotoxicity against human HepG2 cells assessed as cell viability after 48 hrs by MTS assay; format: cell-based; conditions: HepG2, 48 h
Klebsiella pneumoniae [37] = experiment: Antibacterial activity against Klebsiella pneumoniae HK11750/08 after 48 hrs by broth microdilution method; format: functional; conditions: HK11750/08, 48 h
Klebsiella pneumoniae [38] = experiment: Antibacterial activity against extended spectrum beta-lactamase producing Klebsiella pneumoniae HK14368/08 after 24 hrs by broth microdilution method; format: functional; conditions: HK14368/08, 24 h
Huh-7 = experiment: Cytotoxicity against human HuH7 cells assessed as cell viability after 48 hrs by MTS assay; format: cell-based; conditions: Huh-7, 48 h
[39] = Cytotoxicity against human HepG2 cells assessed as cell viability at 30 uM after 48 hrs by MTS assay relative to control; format: cell-based; conditions: read-out: Activity
[40] = tested on: Mycobacterium tuberculosis; experiment: Antimycobacterial activity against Mycobacterium tuberculosis CNCTC My 331/88 after 21 days by micromethod; format: functional; conditions: CNCTC My 331/88, 504 h
Mycobacterium kansasii [41] = experiment: Antimycobacterial activity against Mycobacterium kansasii CNCTC My 235/80 after 7 days by micromethod; format: functional; conditions: CNCTC My 235/80, 168 h
[42] = tested on: Mycobacterium tuberculosis; experiment: Antimycobacterial activity against Mycobacterium tuberculosis CNCTC My 331/88 after 14 days by micromethod; format: functional; conditions: CNCTC My 331/88, 336 h
[43] = tested on: Staphylococcus epidermidis; experiment: Antibacterial activity against Staphylococcus epidermidis HK6996/08 after 24 hrs by broth microdilution method; format: functional; conditions: HK6996/08, 24 h
Trichosporon asahii [44] = experiment: Antifungal activity against Trichosporon asahii 1188 after 24 hrs by broth microdilution method; format: functional; conditions: Trichosporon asahii, 1188, 24 h
Klebsiella pneumoniae [45] = experiment: Antibacterial activity against Klebsiella pneumoniae HK11750/08 after 24 hrs by broth microdilution method; format: functional; conditions: HK11750/08, 24 h
Mycobacterium avium [46] = experiment: Antimycobacterial activity against Mycobacterium avium CNCTC My 330/88 after 14 days by micromethod; format: functional; conditions: CNCTC My 330/88, 336 h
Staphylococcus aureus [47] = experiment: Antibacterial activity against Staphylococcus aureus ATCC 6538 after 48 hrs by broth microdilution method; format: functional; conditions: ATCC 6538, 48 h

O=[N+]([O-])c1cc(-c2nnc(SCc3ccc(Cl)c(Cl)c3)o2)cc([N+](=O)[O-])c1
0.03 µM: MIC (Mycobacterium kansasii [8]) | MIC (Mycobacterium kansasii [12]) | MIC (Mycobacterium kansasii [14]) | MIC (Mycobacterium kansasii [23]) | MIC (Mycobacterium kansasii [27]) | MIC [40] | MIC (Mycobacterium kansasii [41]) | MIC [42]
> 30 µM: IC50 (MDCK) | IC50 (A-431) | IC50 (HepG2) | IC50 (Huh-7)
153%: viability at 48 h, 30 µM [11]
> 125 µM: MIC (Enterococcus sp. [1]) | MIC (Escherichia coli [2]) | MIC [3] | MIC (Candida albicans [4]) | MIC (Enterococcus sp. [5]) | MIC (Pichia kudriavzevii [7]) | MIC (Escherichia coli [9]) | MIC (Candida albicans [10]) | MIC (Lichtheimia corymbifera [13]) | MIC (Nakaseomyces glabratus [15]) | MIC [16] | MIC (Trichosporon asahii [17]) | MIC (Staphylococcus aureus [18]) | MIC (Aspergillus fumigatus [19]) | MIC (Candida tropicalis [20]) | MIC (Staphylococcus aureus [21]) | MIC (Aspergillus fumigatus [22]) | MIC (Pseudomonas aeruginosa [25]) | MIC (Pseudomonas aeruginosa [28]) | MIC (Klebsiella pneumoniae [29]) | MIC (Candida tropicalis [31]) | MIC (Nakaseomyces glabratus [32]) | MIC (Staphylococcus aureus [33]) | MIC (Pichia kudriavzevii [34]) | MIC [35] | MIC (Lichtheimia corymbifera [36]) | MIC (Klebsiella pneumoniae [37]) | MIC (Klebsiella pneumoniae [38]) | MIC [43] | MIC (Trichosporon asahii [44]) | MIC (Klebsiella pneumoniae [45]) | MIC (Staphylococcus aureus [47])
16 µM: MIC (Mycobacterium avium [46])
126%: viability at 48 h, 30 µM [24]
125%: viability at 48 h, 30 µM [39]
91%: viability at 48 h, 30 µM [26]
32 µM: MIC (Mycobacterium avium [30])
> 1000: selectivity ratio [6]

O=[N+]([O-])c1cc(-n2nnnc2SCc2ccc(Cl)cc2)cc([N+](=O)[O-])c1
> 30 µM: IC50 (MDCK) | IC50 (A-431) | IC50 (HepG2) | IC50 (Huh-7)
4 µM: MIC (Mycobacterium kansasii [14])
125 µM: MIC (Staphylococcus aureus [18]) | MIC (Staphylococcus aureus [21]) | MIC (Staphylococcus aureus [33]) | MIC (Staphylococcus aureus [47])
500 µM: MIC [35] | MIC [43]
> 500 µM: MIC (Enterococcus sp. [1]) | MIC (Escherichia coli [2]) | MIC [3] | MIC (Candida albicans [4]) | MIC (Enterococcus sp. [5]) | MIC (Pichia kudriavzevii [7]) | MIC (Escherichia coli [9]) | MIC (Candida albicans [10]) | MIC (Lichtheimia corymbifera [13]) | MIC (Nakaseomyces glabratus [15]) | MIC [16] | MIC (Trichosporon asahii [17]) | MIC (Aspergillus fumigatus [19]) | MIC (Candida tropicalis [20]) | MIC (Aspergillus fumigatus [22]) | MIC (Pseudomonas aeruginosa [25]) | MIC (Pseudomonas aeruginosa [28]) | MIC (Klebsiella pneumoniae [29]) | MIC (Candida tropicalis [31]) | MIC (Nakaseomyces glabratus [32]) | MIC (Pichia kudriavzevii [34]) | MIC (Lichtheimia corymbifera [36]) | MIC (Klebsiella pneumoniae [37]) | MIC (Klebsiella pneumoniae [38]) | MIC (Trichosporon asahii [44]) | MIC (Klebsiella pneumoniae [45])
8 µM: MIC (Mycobacterium avium [46])
1 µM: MIC (Mycobacterium kansasii [8]) | MIC (Mycobacterium kansasii [12]) | MIC (Mycobacterium kansasii [41])
> 60: selectivity ratio [6]
16 µM: MIC (Mycobacterium avium [30])
85%: viability at 48 h, 30 µM [26]
2 µM: MIC (Mycobacterium kansasii [27])
115%: viability at 48 h, 30 µM [11]
134%: viability at 48 h, 30 µM [39]
0.5 µM: MIC (Mycobacterium kansasii [23]) | MIC [40] | MIC [42]
74%: viability at 48 h, 30 µM [24]
